# Experimental data taken from patent US10130598B2, “Methods and compositions for administration of 3-halopyruvate and related compounds for the treatment of cancer” (The Johns Hopkins University, priority 2008, dated 2018).
# pIC50: −log10 of the molar value.
# Columns and labels:
# Type in all cases: cell-based
# [1] = test system: HepG2 cells; test: ATP dependent luminescence cell viability assay, HepG2
# Source text: (§1) The non-small cell lung cancer (NSCLC) cell line NCI-H1299, the breast cancer cell lines MCF7 and MDA MB 231 and the Hep3B, Hep2G and SK-Hep1 cells were obtained from the American Type Culture Collection (ATCC) (Manassas, Va., USA) and maintained as a monolayer culture in Eagle's minimum essential medium (MEM, Invitrogen, Gaithersburg, Md., USA) supplemented with 10% fetal bovine serum at 37 C and 5% CO2. All treatments were done in triplicate samples on 96-well plates. VX2 cells were maintained as described in Geschwind et al., Cancer Res., 62:3909-3913 (2002).
# Cytotoxicity of 3-BrPA was evaluated by the IC50 values, representing the drug concentration which depletes ATP by 50% compared to non-treated control. On day 1, cells were seeded into 96-well plates in a volume of 100 μl per well. On day 2, the medium of all wells was removed and an aliquot of 100 μl of media having serial dilutions of 3-BrPA in PBS, NaHCO3, NaOH, KOH and KHCO3 was added to the appropriate well. […] Briefly, 100 μl assay reagent was added to each well and mixed at room temperature for 2 min to develop luminescent signal. The luminescence intensity (cps) from each sample was determined with a spectrometer (Model Victor III, Perkin Elmer, Mass.). […]
# The effects on cell viability and cellular metabolism of 3-BrPA on Hep3B and VX2 cells were examined using luminescence ATP assays, as described above. […]
# [2] = test system: MDA MB 231 cells; test: Luminescence ATP assay, MDA MB 231
# Method: Cytotoxicity of 3-BrPA was evaluated by the IC50 values, representing the drug concentration which depletes ATP by 50% compared to non-treated control. On day 1, cells were seeded into 96-well plates in a volume of 100 μl per well. On day 2, the medium of all wells was removed and an aliquot of 100 μl of media having serial dilutions of 3-BrPA in PBS, NaHCO3, NaOH, KOH and KHCO3 was added to the appropriate well. After 24 h of drug exposure cytotoxic effects of 3-BrPA were monitored by cellular ATP level using CellTiter-Glo™ assay reagents from Promega Corp (Madison, Wis.). Briefly, 100 μl assay reagent was added to each well and mixed at room temperature for 2 min to develop luminescent signal. The luminescence intensity (cps) from each sample was determined with a spectrometer (Model Victor III, Perkin Elmer, Mass.). Relative luminescence was calculated in proportion to the numbers of living cells per sample well. The results are expressed as the mean of three independent experiments. The intracellular ATP contents were calculated and normalized by equal cell number and expressed as the percentage of the control cells. The IC50 values were estimated graphically from dose-response plots.
# The anti-metabolic effect of 3-BrPA on MCF7 and MDA MB231 cells was examined using luminescence ATP assays, as described above. […]
# [3] = test system: H1299 cells; test: Trypan blue viability assay, H1299
# Source text: as §1
# (§2) The efficacy of 3-BrPA in the treatment of lung cancer cells was tested using the non-small cell lung cancer (NSCLC) cell line NCI-H1299. As described above, the cell line was grown as a monolayer in MEM (Invitrogen) supplemented with 10% fetal bovine serum (HyClone) at 37 C.° and 5% CO2, and all treatments were done in triplicate samples on 96-well plates.
# (§3) The EC50 of 3-BrPA for H1299 cells lies between 0.08 and 0.09 mM. […] Therefore, considering that oral administration of 3-BrPA buffered in NaHCO3 is effective in prolonging survival in liver cancer models (Example 2), it is probable that oral administration of 3-BrPA buffered in NaHCO3 would also be effective in the treatment of lung cancer.
# [4] = test system: MCF7 cells; test: Trypan blue viability assay, MCF7
# Source text: as §1
# as §2, with “breast” for “lung”, “cancer” for “non-small”, “lines MCF7 and MDA MB 231.” for “lung cancer (NSCLC) cell line NCI-H1299.”, “lines were” for “line was”, “monolayers” for “a monolayer”
# as §3, with “MCF7” for “H1299”, “0.05” for “0.08”, “0.06” for “0.09”, “breast” for “lung”
structure (smiles),measurement,setting,value
"O=C(O)C(=O)CBr [3-BrPA, 3-bromopyruvate]",Level of ATP,"[1]; 3, 24, 48 hours",dose and time dependent decrease
same,pIC50,"[1]; at 48 hours, read-out: IC50 (ATP depletion)",3.90
same,ATP level (bioluminescent quantification),[2],dose and time dependent energy (ATP) depletion
same,Cells died,"[3]; 0.1 mM, within 3 hours",more than 80%
same,Cell death,[3]; 0.2 mM,100%
same,EC50 compared with EC50 of 3-BrPA for VX2 liver cancer cells,[3]; H1299,lower
same,Viability (trypan blue),[3]; H1299,dose and time dependent decrease in viability
same,Cells died,"[4]; 0.05 mM, within 3 hours",more than 40%
same,Cell death,[4]; 0.15 mM,100%
same,EC50 compared with EC50 of 3-BrPA for VX2 liver cancer cells,[4]; MCF7,lower
same,Viability (trypan blue),[4]; MCF7,dose and time dependent decrease in viability
